In patent US11498899B2, “Nitrone herbicides” (FMC Corporation, priority 2016, dated 2022):

Experiments:
rice (Oryza sativa) = assay: Test B flooded paddy test, visual rating 0-100 (0 no effect, 100 complete control); details: Flood, 250 g ai/ha, applied to paddy water, rated after 13 to 15 days
[1] = tested on: barnyardgrass (Echinochloa crus-galli); assay: Test B flooded paddy test, visual rating 0-100; details: Flood, 250 g ai/ha, applied to paddy water, rated after 13 to 15 days
[2] = tested on: pigweed (Amaranthus retroflexus); assay: Test A preemergence, visual injury rating 0-100; format: in vivo
[3] = tested on: foxtail, giant (giant foxtail, Setaria faberii); assay: Test A preemergence, visual injury rating 0-100; format: in vivo
kochia (Kochia scoparia) [4] = assay: Test A preemergence, visual injury rating 0-100; format: in vivo
[5] = tested on: ragweed (common ragweed, Ambrosia elatior); assay: Test A preemergence, visual injury rating 0-100; format: in vivo
[6] = tested on: ryegrass, Italian (Italian ryegrass, Lolium multiflorum); assay: Test A preemergence, visual injury rating 0-100; format: in vivo
[7] = tested on: barnyardgrass (Echinochloa crus-galli); assay: Test A preemergence, visual injury rating 0-100 (0 no effect, 100 complete control); format: in vivo
[8] = tested on: blackgrass (Alopecurus myosuroides); assay: Test A postemergence, visual injury rating 0-100; format: in vivo; details: 0 to 100 scale
[9] = tested on: pigweed (Amaranthus retroflexus); assay: Test A postemergence, visual injury rating 0-100; format: in vivo; details: 0 to 100 scale
corn (Zea mays) = assay: Test A postemergence, visual injury rating 0-100; format: in vivo; details: 0 to 100 scale
[10] = tested on: foxtail, giant (giant foxtail, Setaria faberii); assay: Test A postemergence, visual injury rating 0-100; format: in vivo; details: 0 to 100 scale
[11] = tested on: barnyardgrass (Echinochloa crus-galli); assay: Test A postemergence, visual injury rating 0-100; format: in vivo; details: 0 to 100 scale
kochia (Kochia scoparia) [12] = assay: Test A postemergence, visual injury rating 0-100; format: in vivo; details: 0 to 100 scale
[13] = tested on: galium (catchweed bedstraw, Galium aparine); assay: Test A postemergence, visual injury rating 0-100; format: in vivo; details: 0 to 100 scale
[14] = tested on: ragweed (common ragweed, Ambrosia elatior); assay: Test A postemergence, visual injury rating 0-100; format: in vivo; details: 0 to 100 scale
[15] = tested on: ryegrass, Italian (Italian ryegrass, Lolium multiflorum); assay: Test A postemergence, visual injury rating 0-100; format: in vivo; details: 0 to 100 scale
[16] = tested on: wheat (Triticum aestivum); assay: Test A postemergence, visual injury rating 0-100; format: in vivo; details: 0 to 100 scale
[17] = tested on: ducksalad (Heteranthera limosa); assay: Test B flooded paddy test, visual rating 0-100; details: Flood, 250 g ai/ha, applied to paddy water, rated after 13 to 15 days

SMILES | Rice plant response rating (0 to 100 scale) (rice (Oryza sativa)) | Barnyardgrass plant response rating (0 to 100 scale) [1] | Pigweed plant response rating (0 to 100 scale) ([2]; 125 g ai/ha) | Pigweed plant response rating (0 to 100 scale) ([2]; 500 g ai/ha) | Foxtail, Giant plant response rating (0 to 100 scale) ([3]; 125 g ai/ha) | Foxtail, Giant plant response rating (0 to 100 scale) ([3]; 500 g ai/ha) | Kochia plant response rating (0 to 100 scale) (kochia (Kochia scoparia) [4]; 125 g ai/ha) | Kochia plant response rating (0 to 100 scale) (kochia (Kochia scoparia) [4]; 500 g ai/ha) | Ragweed plant response rating (0 to 100 scale) ([5]; 125 g ai/ha) | Ragweed plant response rating (0 to 100 scale) ([5]; 500 g ai/ha) | Ryegrass, Italian plant response rating (0 to 100 scale) ([6]; 125 g ai/ha) | Ryegrass, Italian plant response rating (0 to 100 scale) ([6]; 500 g ai/ha) | Barnyardgrass plant response rating (0 to 100 scale) ([7]; 125 g ai/ha) | Barnyardgrass plant response rating (0 to 100 scale) ([7]; 500 g ai/ha) | Blackgrass plant response rating ([8]; 125 g ai/ha) | Blackgrass plant response rating ([8]; 500 g ai/ha) | Pigweed plant response rating ([9]; 125 g ai/ha) | Pigweed plant response rating ([9]; 500 g ai/ha) | Corn plant response rating (corn (Zea mays); 125 g ai/ha) | Corn plant response rating (corn (Zea mays); 500 g ai/ha) | other results
CC1=[N+]([O-])C(C(=O)Nc2cccc(F)c2F)C(c2cccc(Cl)c2F)C1 (stereo not shown) [Compound 99] | 0 | 60 | 0 | 60 | 90 | 90 | 10 | 70 | 10 | 80 | 50 | 70 | 90 | 90 | 50 | 70 | 0 | 40 | 0 | 40 | Foxtail, Giant plant response rating ([10]; 125 g ai/ha): 60; Foxtail, Giant plant response rating ([10]; 500 g ai/ha): 90; Barnyardgrass plant response rating ([11]; 125 g ai/ha): 90; Barnyardgrass plant response rating ([11]; 500 g ai/ha): 90; Kochia plant response rating (kochia (Kochia scoparia) [12]; 125 g ai/ha): 0; Kochia plant response rating (kochia (Kochia scoparia) [12]; 500 g ai/ha): 50; Galium plant response rating ([13]; 125 g ai/ha): 30; Galium plant response rating ([13]; 500 g ai/ha): 50; Ragweed plant response rating ([14]; 125 g ai/ha): 0; Ragweed plant response rating ([14]; 500 g ai/ha): 30; Ryegrass, Italian plant response rating ([15]; 125 g ai/ha): 30; Ryegrass, Italian plant response rating ([15]; 500 g ai/ha): 70; Wheat plant response rating ([16]; 125 g ai/ha): 0; Wheat plant response rating ([16]; 500 g ai/ha): 50; Ducksalad plant response rating (0 to 100 scale) [17]: 85
COc1cc(C2CC(C)=[N+]([O-])C2C(=O)Nc2cccc(F)c2F)ccc1C(F)(F)F (stereo not shown) [Compound 100] | 0 | 0 | 0 | 60 | 90 | 90 | 40 | 80 | 0 | 80 | 0 | 90 | 90 | 90 | 30 | 70 | 0 | 40 | 30 | 70 | Foxtail, Giant plant response rating ([10]; 125 g ai/ha): 60; Foxtail, Giant plant response rating ([10]; 500 g ai/ha): 90; Barnyardgrass plant response rating ([11]; 125 g ai/ha): 70; Barnyardgrass plant response rating ([11]; 500 g ai/ha): 90; Kochia plant response rating (kochia (Kochia scoparia) [12]; 125 g ai/ha): 20; Kochia plant response rating (kochia (Kochia scoparia) [12]; 500 g ai/ha): 70; Galium plant response rating ([13]; 125 g ai/ha): 70; Galium plant response rating ([13]; 500 g ai/ha): 80; Ragweed plant response rating ([14]; 125 g ai/ha): 20; Ragweed plant response rating ([14]; 500 g ai/ha): 70; Ryegrass, Italian plant response rating ([15]; 125 g ai/ha): 0; Ryegrass, Italian plant response rating ([15]; 500 g ai/ha): 70; Wheat plant response rating ([16]; 125 g ai/ha): 20; Wheat plant response rating ([16]; 500 g ai/ha): 50; Ducksalad plant response rating (0 to 100 scale) [17]: 0
